Laboratory results as given in publication PMC2527810, “[^18F]FDG and [^18F]FLT uptake in human breast cancer cells in relation to the effects of chemotherapy: an in vitro study” (British Journal of Cancer, 2008).

Tests used:
[1] = tested on: MDA MB231 cells; experiment: Cytotoxicity by sulforhodamine (SRB) assay; type: cell-based; details: Homo sapiens, MDA-MB-231, 72 h drug incubation, read-out: IC50 (50% reduction in growth)
Method: The human breast cancer cell line MDA MB231 (ATCC no. HTB-26) and CEM leukaemia cells (CEM wild type and TK-deficient CEM/TK-) were cultured in RPMI 1640 supplemented with 10% foetal bovine serum and 1% penicillin/streptomycin (P/S), at 5% CO2 in a humidified atmosphere at 37°C. Cell counting was performed with a Casy cell counter (Schärfe System GmbH, Reutlingen, Germany).
Cytotoxicity to 5-FU (Sigma Chemical Co., MO, St Louis, USA), doxorubicin (doxorubicin hydrochloride, Pfizer, Cappelle a/d IJssel, The Netherlands) and paclitaxel (Sigma Chemical Co.) was determined by sulforhodamine (SRB) assay. Briefly, cells were plated in 96-well plates and after 24 h, drugs were added at various concentrations, incubated for 72 h and the SRB assay was performed as described previously ([de Bruin et al, 2003]). The IC50 is the concentration resulting in 50% reduction in growth compared with untreated control cells.

[2] = tested on: TK-1 protein levels of MDA MB231 cells; experiment: TK-1 protein levels by Western blot; details: for increase in TK-1 levels compared with untreated cells: abstract, time not stated
[3] = tested on: MDA MB231 cells; experiment: Cell cycle analysis after exposure to IC50 drug concentrations; type: cell-based, human; details: for cell cycle effect (in words): at IC50 concentrations
Method: For cell cycle analysis, cells were exposed to IC50 concentrations of the various drugs for 4, 24, 48 or 72 h, fixed in 70% ethanol (1 × 10^6 cells per ml) and stored at 4°C until analysis, as described previously ([Temmink et al, 2007]) according to a slightly modified protocol.

[4] = tested on: Thymidine kinase (TK) activity in MDA MB231 breast cancer cells; experiment: TK enzyme activity (FLT phosphorylation) in lysates of drug-treated cells; type: cell-based, human; details: IC50 concentration; for TK activity compared with untreated cells (in words): 48 and 72 h, effects minor
Method: . Enzyme activity was also analysed in CEM cells and in the corresponding TK-1-deficient subtype to assess whether FLT phosphorylation only occurs in the presence of sufficient cytosolic TK-1.
Cell pellets were suspended in 50 mM Tris/1 mM EDTA (pH 7.4) and sonificated on ice. Lysates were spun down and supernatant diluted 1 : 8 in 50 mM Tris/1 mM EDTA (pH 7.4).
3′-deoxy-3′-[^18F]fluorothymidine was diluted with 50 mM Tris/1 mM EDTA (pH 7.4) and 1 : 1 mixed with 20 mM ATP, 10 mM MgCl2, resulting in an FLT concentration of about 60 MBq ml^−1 (6.32–18.89 pmol per sample). […] .
The assay was optimised for protein concentration and incubation times. Diluted cell lysates or purified TK-2 (kindly provided by A. Karlsson, Karolinska Institute, Stockholm, Sweden) were incubated with the FLT mixture for 15 min at 37°C and the reaction was stopped by heating the samples at 95°C for 5 min. Substrate (FLT) and product (FLT-phosphate) were separated by TLC and radioactivity was measured in a single-well gamma counter (Wallac1480 Wizard, Perkin Elmer Lifescience, MA, USA). Protein concentrations were measured in a Bio-Rad Bradford protein assay (Bio-Rad Laboratories, Hercules, CA, USA).

[5] = tested on: MDA MB231 cells; experiment: Cellular FLT uptake after drug incubation; type: cell-based, human; details: IC50 concentration
Method: (§1) Cells were plated in six identical 24-well plates at 75 000 cells per ml. […] Control cells were plated in a concentration of 45 000 cells per ml, 4 days before tracer uptake. Cell culture medium was replaced 4 h before adding PET tracers. For FDG plates, medium was replaced with medium without glucose (+IC50 drugs concentration), as glucose competes with FDG uptake. For FLT plates, medium was replaced with medium without L-glutamine (+IC50 drugs concentration). The presence of L-glutamine in the culture medium may reduce FLT uptake, as glutamine is a source of thymidine monophosphate competing with FLT uptake through the de novo pathway.
(§2) One MBq per well FDG or FLT was added to the cells and incubated for 60 min at 37°C. After removal of excess tracer, cellular tracer uptake was determined with an ECAT Exact HR+ PET scanner (Siemens/CTI, Knoxville, TN, USA). Images were analysed using CAPP software (version 7.2, CTI/Siemens, Knoxville, TN, USA). Regions of interest (ROI) were drawn manually in a plane with visible tracer uptake. Next, ROIs were copied to all other planes and total activity per well was calculated and plotted against exact number of cells. Tracer uptake was also determined in an identical plate using the single-well gamma counter. Tracer uptake was corrected for the number of cells.

[6] = tested on: MDA MB231 cells; experiment: Cellular FDG uptake after drug incubation; type: cell-based, human; details: IC50 concentration
Method: as §1, §2

[7] = 48 h incubation, IC50 concentration

Structure (SMILES): O=c1[nH]cc(F)c(=O)[nH]1 [5-FU, 5-fluorouracil]
- IC50 [1]: 5000 nM
- Mean (±s.d.) change in TK-1 protein levels compared with untreated cells (set to 100%) ([2]; 4 h, IC50 concentration): 163±1%
- Mean (±s.d.) change in TK-1 protein levels compared with untreated cells (set to 100%) ([2]; 24 h, IC50 concentration): 122±38%
- Mean (±s.d.) change in TK-1 protein levels compared with untreated cells (set to 100%) ([2]; 48 h, IC50 concentration): 184±53%
- Mean (±s.d.) change in TK-1 protein levels compared with untreated cells (set to 100%) ([2]; 72 h, IC50 concentration): 443±58%
- increase in TK-1 levels compared with untreated cells [2]: > 300
- increase in TK-1 levels ([2]; at 48 h, IC50 concentration): two-fold
- cell cycle effect (in words) [3]: accumulation in the G1 phase
- TK activity compared with untreated cells (in words) [4]: increased TK activity
- Mean (±s.d.) change in FLT uptake compared with untreated cells (set to 100%) ([5]; 4 h): 99±45%
- Mean (±s.d.) change in FLT uptake compared with untreated cells (set to 100%) ([5]; 24 h): 113±7%
- Mean (±s.d.) change in FLT uptake compared with untreated cells (set to 100%) ([5]; 48 h): 101±8%
- Mean (±s.d.) change in FLT uptake compared with untreated cells (set to 100%) ([5]; 72 h): 46±32%
- decrease in FLT uptake ([5]; 72 h): 54%
- decrease in FLT uptake ([5]; 72 h, listed as 5-fluorouracil): approximately 50%
- Mean (±s.d.) change in FDG uptake compared with untreated cells (set to 100%) ([6]; 4 h): 67±2%
- Mean (±s.d.) change in FDG uptake compared with untreated cells (set to 100%) ([6]; 24 h): 70±13%
- Mean (±s.d.) change in FDG uptake compared with untreated cells (set to 100%) ([6]; 48 h): 69±21%
- Mean (±s.d.) change in FDG uptake compared with untreated cells (set to 100%) ([6]; 72 h): 45±20%
- decrease in FDG uptake ([6]; 72 h, listed as 5-fluorouracil): approximately 50%

Structure (SMILES): COc1cccc2c1C(=O)c1c(O)c3c(c(O)c1C2=O)C[C@@](O)(C(=O)CO)C[C@@H]3O[C@H]1C[C@H](N)[C@H](O)[C@H](C)O1 [doxorubicin]
- IC50 [1]: 200 nM
- Mean (±s.d.) change in TK-1 protein levels compared with untreated cells (set to 100%) ([2]; 4 h, IC50 concentration): 64±6%
- Mean (±s.d.) change in TK-1 protein levels compared with untreated cells (set to 100%) ([2]; 24 h, IC50 concentration): 130±78%
- Mean (±s.d.) change in TK-1 protein levels compared with untreated cells (set to 100%) ([2]; 48 h, IC50 concentration): 177±71%
- Mean (±s.d.) change in TK-1 protein levels compared with untreated cells (set to 100%) ([2]; 72 h, IC50 concentration): 473±348%
- increase in TK-1 levels compared with untreated cells [2]: > 300
- increase in TK-1 levels ([2]; at 48 h, IC50 concentration): two-fold
- decrease in G1 phase [3, 7]: 90%
- decrease in S phase [3, 7]: 70%
- accumulation in the G2/M phase ([3]; 48 h incubation, IC50 concentration, vs control cells): two-fold
- cell cycle effect (in words) [3]: G2/M accumulation
- increase in TK activity compared with untreated cells ([4]; after 24 h): more than three-fold
- Mean (±s.d.) change in FLT uptake compared with untreated cells (set to 100%) ([5]; 4 h): 123±83%
- Mean (±s.d.) change in FLT uptake compared with untreated cells (set to 100%) ([5]; 24 h): 137±52%
- Mean (±s.d.) change in FLT uptake compared with untreated cells (set to 100%) ([5]; 48 h): 494±232%
- Mean (±s.d.) change in FLT uptake compared with untreated cells (set to 100%) ([5]; 72 h): 273±209%
- increase in FLT uptake ([5]; 72 h): 173%
- increase in FLT uptake ([5]; irrespective of incubation time): > 24%
- Mean (±s.d.) change in FDG uptake compared with untreated cells (set to 100%) ([6]; 4 h): 57±35%
- Mean (±s.d.) change in FDG uptake compared with untreated cells (set to 100%) ([6]; 24 h): 124±59%
- Mean (±s.d.) change in FDG uptake compared with untreated cells (set to 100%) ([6]; 48 h): 133±45%
- Mean (±s.d.) change in FDG uptake compared with untreated cells (set to 100%) ([6]; 72 h): 171±0%
- increase in FDG uptake ([6]; 72 h): 71%
- increase in FDG uptake ([6]; at 24, 48 and 72 h): > 24%

Structure (SMILES): CC(=O)O[C@H]1C(=O)[C@@]2(C)[C@H]([C@H](OC(=O)c3ccccc3)[C@]3(O)C[C@H](OC(=O)[C@H](O)[C@@H](NC(=O)c4ccccc4)c4ccccc4)C(C)=C1C3(C)C)[C@]1(OC(C)=O)CO[C@@H]1C[C@@H]2O [paclitaxel]
- IC50 [1]: 2.5 nM
- Mean (±s.d.) change in TK-1 protein levels compared with untreated cells (set to 100%) ([2]; 4 h, IC50 concentration): 103±6%
- Mean (±s.d.) change in TK-1 protein levels compared with untreated cells (set to 100%) ([2]; 24 h, IC50 concentration): 62±4%
- Mean (±s.d.) change in TK-1 protein levels compared with untreated cells (set to 100%) ([2]; 48 h, IC50 concentration): 54±16%
- Mean (±s.d.) change in TK-1 protein levels compared with untreated cells (set to 100%) ([2]; 72 h, IC50 concentration): 52±32%
- decrease in TK-1 levels ([2]; at 48 h, IC50 concentration): > 40%
- increase in G2/M phase ([3]; 4 h drug incubation, IC50 concentration): 1.2 fold
- cell cycle effect (in words) [3]: G2/M accumulation
- TK activity compared with untreated cells (in words) [4]: increased TK activity
- Mean (±s.d.) change in FLT uptake compared with untreated cells (set to 100%) ([5]; 4 h): 108±2%
- Mean (±s.d.) change in FLT uptake compared with untreated cells (set to 100%) ([5]; 24 h): 112±54%
- Mean (±s.d.) change in FLT uptake compared with untreated cells (set to 100%) ([5]; 48 h): 118±14%
- Mean (±s.d.) change in FLT uptake compared with untreated cells (set to 100%) ([5]; 72 h): 166±18%
- increase in FLT uptake ([5]; 72 h): 66%
- FLT uptake change (in words) ([5]; abstract): hardly changed
- Mean (±s.d.) change in FDG uptake compared with untreated cells (set to 100%) ([6]; 4 h): 105±41%
- Mean (±s.d.) change in FDG uptake compared with untreated cells (set to 100%) ([6]; 24 h): 125±99%
- Mean (±s.d.) change in FDG uptake compared with untreated cells (set to 100%) ([6]; 48 h): 207±163%
- Mean (±s.d.) change in FDG uptake compared with untreated cells (set to 100%) ([6]; 72 h): 228±182%
- increase in FDG uptake ([6]; after 48 h (at 48 and 72 h)): > 100%
